Laboratory results taken from patent US20250320213A1, “Nitrogen-Containing Heterocyclic Compounds” (Pfizer Inc., priority 2024, published 2025).

These compounds were tested against T1, STAT6 (Homo sapiens, UniProt P42226) (assay: STAT6 Reporter Luciferase Assay (IL-13 stimulated HaCaT keratinocyte NanoLuc reporter cells)). Settings: IL-13 stimulated HaCaT STAT6 NanoLuc reporter cells; read-out: Reporter EC50.
T1 construct: stably transfected HaCaT keratinocyte cell line, which expresses NanoLuc luciferase reporter gene under the transcriptional control of the STAT6 responsive promoter; endogenous in cells; host or cells: HaCaT keratinocyte reporter cell line (stably transfected with a NanoLuc reporter)
T1 sequence (P42226 1-847): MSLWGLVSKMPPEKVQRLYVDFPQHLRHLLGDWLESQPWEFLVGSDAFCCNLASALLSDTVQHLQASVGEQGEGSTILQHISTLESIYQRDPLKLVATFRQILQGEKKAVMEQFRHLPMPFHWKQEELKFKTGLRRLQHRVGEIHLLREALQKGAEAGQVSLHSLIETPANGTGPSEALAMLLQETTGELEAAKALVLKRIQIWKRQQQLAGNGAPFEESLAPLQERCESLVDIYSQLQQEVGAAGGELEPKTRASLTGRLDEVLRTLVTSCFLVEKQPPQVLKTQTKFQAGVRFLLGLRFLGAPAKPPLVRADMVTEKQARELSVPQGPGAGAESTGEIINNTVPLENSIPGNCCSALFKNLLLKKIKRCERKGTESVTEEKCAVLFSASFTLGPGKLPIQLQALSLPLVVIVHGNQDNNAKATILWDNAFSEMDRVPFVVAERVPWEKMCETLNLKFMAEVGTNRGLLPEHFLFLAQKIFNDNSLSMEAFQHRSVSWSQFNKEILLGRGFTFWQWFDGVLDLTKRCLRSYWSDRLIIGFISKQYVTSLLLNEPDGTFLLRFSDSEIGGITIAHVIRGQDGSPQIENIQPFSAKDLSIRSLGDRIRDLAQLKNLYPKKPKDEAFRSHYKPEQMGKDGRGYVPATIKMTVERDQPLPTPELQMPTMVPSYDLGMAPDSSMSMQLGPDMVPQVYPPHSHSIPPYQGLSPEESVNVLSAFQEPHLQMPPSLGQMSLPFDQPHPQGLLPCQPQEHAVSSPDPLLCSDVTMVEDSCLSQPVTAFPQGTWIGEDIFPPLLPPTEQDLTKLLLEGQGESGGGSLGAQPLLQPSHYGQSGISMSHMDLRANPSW
Assay type: cell-based
Method in brief: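 Cells were plated overnight, washed, exposed to compound for two hours, stimulated with IL-13 (0.12 nM final) for four hours at 37 °C, and then lysed with Nano-Glo substrate for 15 min before luminescence reading.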

Row | EC50 [nM] | Compound
1 | 29 | CC(C)n1nc(C(=O)NCc2ccc(NC(=O)N(C)C)cc2)c2c1CCN(c1ccc(C(=O)N3CCc4c(cnn4C)C3)cn1)C2 [Example 416, N-(4-(3,3-dimethylureido)benzyl)-1-isopropyl-5-(5-(1-methyl-4,5,6,7-tetrahydro-1H-pyrazolo[4,3-c]pyridine-5-carbonyl)pyridin-2-yl)-4,5,6,7-tetrahydro-1H-pyrazolo[4,3-c]pyridine-3-carboxamide]
2 | 17 | CC(C)n1nc(C(=O)NCc2ccc(NC(=O)N(C)C)cc2)c2c1CCN(c1ccc(C(=O)N3CCc4cccnc4C3)cn1)C2 [Example 417, N-(4-(3,3-dimethylureido)benzyl)-1-isopropyl-5-(5-(5,6,7,8-tetrahydro-1,7-naphthyridine-7-carbonyl)pyridin-2-yl)-4,5,6,7-tetrahydro-1H-pyrazolo[4,3-c]pyridine-3-carboxamide]
3 | 61 | Cc1nn(C)c2c1CCN(C(=O)c1ccc(N3CCc4c(c(C(=O)NCc5ccc(NC(=O)N(C)C)cc5)nn4C(C)C)C3)nc1)C2 [Example 418, 5-(5-(1,3-dimethyl-4,5,6,7-tetrahydro-1H-pyrazolo[3,4-c]pyridine-6-carbonyl)pyridin-2-yl)-N-(4-(3,3-dimethylureido)benzyl)-1-isopropyl-4,5,6,7-tetrahydro-1H-pyrazolo[4,3-c]pyridine-3-carboxamide]
4 | 44 | Cc1cnn2c1CN(C(=O)c1ccc(N3CCc4c(c(C(=O)NCc5ccc(NC(=O)N(C)C)cc5)nn4C(C)C)C3)nc1)CC2 [Example 419, N-(4-(3,3-dimethylureido)benzyl)-1-isopropyl-5-(5-(3-methyl-4,5,6,7-tetrahydropyrazolo[1,5-a]pyrazine-5-carbonyl)pyridin-2-yl)-4,5,6,7-tetrahydro-1H-pyrazolo[4,3-c]pyridine-3-carboxamide]
5 | 18 | CC(C)n1nc(C(=O)NCc2ccc(NC(=O)N(C)C)cc2)c2c1CCN(c1ccc(C(=O)N3CCc4c(ncn4C)C3)cn1)C2 [Example 421, N-(4-(3,3-dimethylureido)benzyl)-1-isopropyl-5-(5-(1-methyl-4,5,6,7-tetrahydro-1H-imidazo[4,5-c]pyridine-5-carbonyl)pyridin-2-yl)-4,5,6,7-tetrahydro-1H-pyrazolo[4,3-c]pyridine-3-carboxamide]
6 | 29 | Cc1nc2c(o1)CCN(C(=O)c1ccc(N3CCc4c(c(C(=O)NCc5ccc(NC(=O)N(C)C)cc5)nn4C(C)C)C3)nc1)C2 [Example 423, N-(4-(3,3-dimethylureido)benzyl)-1-isopropyl-5-(5-(2-methyl-4,5,6,7-tetrahydrooxazolo[4,5-c]pyridine-5-carbonyl)pyridin-2-yl)-4,5,6,7-tetrahydro-1H-pyrazolo[4,3-c]pyridine-3-carboxamide]
7 | 186 | CC(C)n1nc(C(=O)NCc2ccc(NC(=O)N(C)C)cc2)c2c1CCN(c1ccc(C(=O)N3CCc4oncc4C3)cn1)C2 [Example 432, N-(4-(3,3-dimethylureido)benzyl)-1-isopropyl-5-(5-(4,5,6,7-tetrahydroisoxazolo[4,5-c]pyridine-5-carbonyl)pyridin-2-yl)-4,5,6,7-tetrahydro-1H-pyrazolo[4,3-c]pyridine-3-carboxamide]
8 | 276 | CC(C)n1nc(C(=O)NCc2ccc(NC(=O)N(C)C)cc2)c2c1CCN(c1ccc(C(=O)N3CCc4cncnc4C3)cn1)C2 [Example 433, N-(4-(3,3-dimethylureido)benzyl)-1-isopropyl-5-(5-(5,6,7,8-tetrahydropyrido[3,4-d]pyrimidine-7-carbonyl)pyridin-2-yl)-4,5,6,7-tetrahydro-1H-pyrazolo[4,3-c]pyridine-3-carboxamide]
9 | 82 | CC(C)n1nc(C(=O)NCc2ccc(NC(=O)N(C)C)cc2)c2c1CCN(c1ccc(C(=O)N3CCc4cnccc4C3)cn1)C2 [Example 434, N-(4-(3,3-dimethylureido)benzyl)-1-isopropyl-5-(5-(1,2,3,4-tetrahydro-2,6-naphthyridine-2-carbonyl)pyridin-2-yl)-4,5,6,7-tetrahydro-1H-pyrazolo[4,3-c]pyridine-3-carboxamide]
10 | 105 | CC(C)n1nc(C(=O)NCc2ccc(NC(=O)N(C)C)cc2)c2c1CCN(c1ccc(C(=O)N3CCn4cncc4C3)cn1)C2 [Example 438, N-(4-(3,3-dimethylureido)benzyl)-1-isopropyl-5-(5-(5,6,7,8-tetrahydroimidazo[1,5-a]pyrazine-7-carbonyl)pyridin-2-yl)-4,5,6,7-tetrahydro-1H-pyrazolo[4,3-c]pyridine-3-carboxamide]

The next lines start with the compound.

Row | Compound | EC50 [nM]
11 | Cc1nc2n(c1C)CCN(C(=O)c1ccc(N3CCc4c(c(C(=O)NCc5ccc(NC(=O)N(C)C)cc5)nn4C(C)C)C3)nc1)C2 [Example 414, 5-(5-(2,3-dimethyl-5,6,7,8-tetrahydroimidazo[1,2-a]pyrazine-7-carbonyl)pyridin-2-yl)-N-(4-(3,3-dimethylureido)benzyl)-1-isopropyl-4,5,6,7-tetrahydro-1H-pyrazolo[4,3-c]pyridine-3-carboxamide] | 66
12 | CC(C)n1nc(C(=O)NCc2ccc(NC(=O)N(C)C)cc2)c2c1CCN(c1ccc(C(=O)N3Cc4cccc(C#N)c4C3)cn1)C2 [Example 415, 5-(5-(4-cyanoisoindoline-2-carbonyl)pyridin-2-yl)-N-(4-(3,3-dimethylureido)benzyl)-1-isopropyl-4,5,6,7-tetrahydro-1H-pyrazolo[4,3-c]pyridine-3-carboxamide] | 3
13 | CC(C)n1nc(C(=O)NCc2ccc(NC(=O)N(C)C)cc2)c2c1CCN(c1ccc(C(=O)N3CCc4ccc(C#N)cc4C3)cn1)C2 [Example 422, 5-(5-(7-cyano-1,2,3,4-tetrahydroisoquinoline-2-carbonyl)pyridin-2-yl)-N-(4-(3,3-dimethylureido)benzyl)-1-isopropyl-4,5,6,7-tetrahydro-1H-pyrazolo[4,3-c]pyridine-3-carboxamide] | 19
14 | CC(C)n1nc(C(=O)NCc2ccc(NC(=O)N(C)C)cc2)c2c1CCN(c1ccc(C(=O)N3Cc4ccnn4C(C)C3)cn1)C2 (stereo not shown) [Example 424, N-(4-(3,3-dimethylureido)benzyl)-1-isopropyl-5-(5-(7-methyl-4,5,6,7-tetrahydropyrazolo[1,5-a]pyrazine-5-carbonyl)pyridin-2-yl)-4,5,6,7-tetrahydro-1H-pyrazolo[4,3-c]pyridine-3-carboxamide] | 46
15 | CC(C)n1nc(C(=O)NCc2ccc(NC(=O)N(C)C)cc2)c2c1CCN(c1ccc(C(=O)N3CCn4nccc4C3)cn1)C2 [Example 425, N-(4-(3,3-dimethylureido)benzyl)-1-isopropyl-5-(5-(4,5,6,7-tetrahydropyrazolo[1,5-a]pyrazine-5-carbonyl)pyridin-2-yl)-4,5,6,7-tetrahydro-1H-pyrazolo[4,3-c]pyridine-3-carboxamide] | 34
16 | CC(C)n1nc(C(=O)NCc2ccc(NC(=O)N(C)C)cc2)c2c1CCN(c1ccc(C(=O)N3Cc4ccccc4[C@H]3C)cn1)C2 [Example 426, (R)-N-(4-(3,3-dimethylureido)benzyl)-1-isopropyl-5-(5-(1-methylisoindoline-2-carbonyl)pyridin-2-yl)-4,5,6,7-tetrahydro-1H-pyrazolo[4,3-c]pyridine-3-carboxamide] | 13
17 | CC(C)n1nc(C(=O)NCc2ccc(NC(=O)N(C)C)cc2)c2c1CCN(c1ccc(C(=O)N3CCn4nncc4C3)cn1)C2 [Example 427, N-(4-(3,3-dimethylureido)benzyl)-1-isopropyl-5-(5-(4,5,6,7-tetrahydro-[1,2,3]triazolo[1,5-a]pyrazine-5-carbonyl)pyridin-2-yl)-4,5,6,7-tetrahydro-1H-pyrazolo[4,3-c]pyridine-3-carboxamide] | 282
18 | CC(C)n1nc(C(=O)NCc2ccc(NC(=O)N(C)C)cc2)c2c1CCN(c1ccc(C(=O)N3CCc4ccccc4C3)cn1)C2 [Example 435, N-(4-(3,3-dimethylureido)benzyl)-1-isopropyl-5-(5-(1,2,3,4-tetrahydroisoquinoline-2-carbonyl)pyridin-2-yl)-4,5,6,7-tetrahydro-1H-pyrazolo[4,3-c]pyridine-3-carboxamide] | 10
19 | CC(C)n1nc(C(=O)NCc2ccc(NC(=O)N(C)C)cc2)c2c1CCN(c1ccc(C(=O)N3CCc4cc(C#N)ccc4C3)cn1)C2 [Example 436, 5-(5-(6-cyano-1,2,3,4-tetrahydroisoquinoline-2-carbonyl)pyridin-2-yl)-N-(4-(3,3-dimethylureido)benzyl)-1-isopropyl-4,5,6,7-tetrahydro-1H-pyrazolo[4,3-c]pyridine-3-carboxamide] | 22
